Article PMC5656653, “Evaluation of Ga-DOTA-(D-Asp)n as bone imaging agents: D-aspartic acid peptides as carriers to bone” (Scientific Reports, 2017)

Assay: Biodistribution experiments in normal mice after i.v. injection
Format: in vivo
Conditions: for tissue uptake dose at 10 min / tissue uptake dose at 1 h / tissue uptake dose at 3 h: male, ddY, total radioactivity, Biodistribution of radioactivity; for Biodistribution of radioactivity, Blood / Biodistribution of radioactivity, Bone (Femur) / Biodistribution of radioactivity, Brain / Biodistribution of radioactivity, Heart / Biodistribution of radioactivity, Kidney / Biodistribution of radioactivity, Large-intestine / Biodistribution of radioactivity, Liver / Biodistribution of radioactivity, Lung / Biodistribution of radioactivity, Muscle / Biodistribution of radioactivity, Pancreas / Biodistribution of radioactivity, Small-intestine / Biodistribution of radioactivity, Spleen / F/B ratio (Femur:blood ratio) / Biodistribution of radioactivity, Stomach: mice, mean (SD); for Biodistribution of radioactivity, Stomach: footnote b
How it was run: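 Male ddY mice (6 weeks, 27–32 g) received tracer i.v. (37–740 kBq/100 μL); 4–5 per group sacrificed at 10, 60 and 180 min. Weighed tissues and whole left femur (bone) gamma-counted with background and decay correction.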

[1] = mouse, in vivo, iv, Bone (Femur)
[2] = mouse, in vivo, iv, Large-intestine
[3] = mouse, in vivo, iv, Small-intestine

## O=C(O)CC[C@@H](NC(=O)[C@@H](CCC(=O)O)NC(=O)[C@@H](CCC(=O)O)NC(=O)[C@@H](CCC(=O)O)NC(=O)[C@@H](CCC(=O)O)NC(=O)[C@@H](CCC(=O)O)NC(=O)[C@@H](CCC(=O)O)NC(=O)[C@@H](CCC(=O)O)NC(=O)[C@@H](CCC(=O)O)NC(=O)[C@@H](CCC(=O)O)NC(=O)[C@@H](CCC(=O)O)NC(=O)[C@@H](CCC(=O)O)NC(=O)[C@@H](CCC(=O)O)NC(=O)[C@@H](CCC(=O)O)NC(=O)CN1CCN(CC(=O)O)CCN(CC(=O)O)CCN(CC(=O)O)CC1)C(=O)O [^67Ga-DOTA-(D-Glu)14, metal not drawn]
mouse, in vivo, iv, Blood
  tissue uptake dose at 10 min: 2.09 %ID
  tissue uptake dose at 1 h: 0.1 %ID
  tissue uptake dose at 3 h: 0.01 %ID
[1]
  tissue uptake dose at 10 min: 11 %ID
  tissue uptake dose at 1 h: 11.8 %ID
  tissue uptake dose at 3 h: 12.2 %ID
mouse, in vivo, iv, Brain
  tissue uptake dose at 10 min: 0.05 %ID
  tissue uptake dose at 1 h: 0.01 %ID
  tissue uptake dose at 3 h: 0.01 %ID
mouse, in vivo, iv, Heart
  tissue uptake dose at 10 min: 0.79 %ID
  tissue uptake dose at 1 h: 0.08 %ID
  tissue uptake dose at 3 h: 0.05 %ID
mouse, in vivo, iv, Kidney
  tissue uptake dose at 10 min: 13.4 %ID
  tissue uptake dose at 1 h: 10.6 %ID
  tissue uptake dose at 3 h: 6.59 %ID
[2]
  tissue uptake dose at 10 min: 0.42 %ID
  tissue uptake dose at 1 h: 0.18 %ID
  tissue uptake dose at 3 h: 0.25 %ID
mouse, in vivo, iv, Liver
  tissue uptake dose at 10 min: 0.46 %ID
  tissue uptake dose at 1 h: 0.12 %ID
  tissue uptake dose at 3 h: 0.08 %ID
mouse, in vivo, iv, Lung
  tissue uptake dose at 10 min: 1.65 %ID
  tissue uptake dose at 1 h: 0.13 %ID
  tissue uptake dose at 3 h: 0.04 %ID
mouse, in vivo, iv, Muscle
  tissue uptake dose at 10 min: 0.78 %ID
  tissue uptake dose at 1 h: 0.19 %ID
  tissue uptake dose at 3 h: 0.02 %ID
mouse, in vivo, iv, Pancreas
  tissue uptake dose at 10 min: 0.68 %ID
  tissue uptake dose at 1 h: 0.13 %ID
  tissue uptake dose at 3 h: 0.06 %ID
[3]
  tissue uptake dose at 10 min: 0.37 %ID
  tissue uptake dose at 1 h: 0.22 %ID
  tissue uptake dose at 3 h: 0.15 %ID
mouse, in vivo, iv, Spleen
  tissue uptake dose at 10 min: 0.37 %ID
  tissue uptake dose at 1 h: 0.06 %ID
  tissue uptake dose at 3 h: 0.03 %ID
mouse, in vivo, iv, Stomach
  tissue uptake dose at 10 min: 0.29 %ID
  tissue uptake dose at 1 h: 0.19 %ID
  tissue uptake dose at 3 h: 0.29 %ID
mouse, in vivo, iv
  Accumulation of radioactivity in bone (in words): high accumulation and retention of radioactivity in bone
  Clearance from the blood (in words): rapid clearance from the blood
  Radioactivity in the kidneys (in words): retained

## O=C(O)CC[C@H](NC(=O)[C@H](CCC(=O)O)NC(=O)[C@H](CCC(=O)O)NC(=O)[C@H](CCC(=O)O)NC(=O)[C@H](CCC(=O)O)NC(=O)[C@H](CCC(=O)O)NC(=O)[C@H](CCC(=O)O)NC(=O)[C@H](CCC(=O)O)NC(=O)[C@H](CCC(=O)O)NC(=O)[C@H](CCC(=O)O)NC(=O)[C@H](CCC(=O)O)NC(=O)[C@H](CCC(=O)O)NC(=O)[C@H](CCC(=O)O)NC(=O)[C@H](CCC(=O)O)NC(=O)CN1CCN(CC(=O)O)CCN(CC(=O)O)CCN(CC(=O)O)CC1)C(=O)O [^67Ga-DOTA-(L-Glu)14, metal not drawn]
mouse, in vivo, iv, Blood
  tissue uptake dose at 10 min: 1.85 %ID
  tissue uptake dose at 1 h: 0.12 %ID
  tissue uptake dose at 3 h: 0.05 %ID
[1]
  tissue uptake dose at 10 min: 9.81 %ID
  tissue uptake dose at 1 h: 11.1 %ID
  tissue uptake dose at 3 h: 10.9 %ID
mouse, in vivo, iv, Brain
  tissue uptake dose at 10 min: 0.05 %ID
  tissue uptake dose at 1 h: 0.01 %ID
  tissue uptake dose at 3 h: 0.03 %ID
mouse, in vivo, iv, Heart
  tissue uptake dose at 10 min: 0.67 %ID
  tissue uptake dose at 1 h: 0.1 %ID
  tissue uptake dose at 3 h: 0.06 %ID
mouse, in vivo, iv, Kidney
  tissue uptake dose at 10 min: 22.1 %ID
  tissue uptake dose at 1 h: 26.4 %ID
  tissue uptake dose at 3 h: 25.1 %ID
[2]
  tissue uptake dose at 10 min: 0.37 %ID
  tissue uptake dose at 1 h: 0.07 %ID
  tissue uptake dose at 3 h: 0.23 %ID
mouse, in vivo, iv, Liver
  tissue uptake dose at 10 min: 0.47 %ID
  tissue uptake dose at 1 h: 0.13 %ID
  tissue uptake dose at 3 h: 0.14 %ID
mouse, in vivo, iv, Lung
  tissue uptake dose at 10 min: 1.57 %ID
  tissue uptake dose at 1 h: 0.13 %ID
  tissue uptake dose at 3 h: 0.06 %ID
mouse, in vivo, iv, Muscle
  tissue uptake dose at 10 min: 0.63 %ID
  tissue uptake dose at 1 h: 0.1 %ID
  tissue uptake dose at 3 h: 0.3 %ID
mouse, in vivo, iv, Pancreas
  tissue uptake dose at 10 min: 0.59 %ID
  tissue uptake dose at 1 h: 0.13 %ID
  tissue uptake dose at 3 h: 0.08 %ID
[3]
  tissue uptake dose at 10 min: 0.5 %ID
  tissue uptake dose at 1 h: 0.13 %ID
  tissue uptake dose at 3 h: 0.15 %ID
mouse, in vivo, iv, Spleen
  tissue uptake dose at 10 min: 0.44 %ID
  tissue uptake dose at 1 h: 0.1 %ID
  tissue uptake dose at 3 h: 0.11 %ID
mouse, in vivo, iv, Stomach
  tissue uptake dose at 10 min: 0.22 %ID
  tissue uptake dose at 1 h: 0.07 %ID
  tissue uptake dose at 3 h: 0.07 %ID
mouse, in vivo, iv
  Accumulation of radioactivity in bone (in words): high accumulation and retention of radioactivity in bone
  Clearance from the blood (in words): rapid clearance from the blood
  Radioactivity in the kidneys (in words): retained

## O.O.O=P([O-])([O-])CP(=O)([O-])[O-].[99Tc+4] [^99mTc-MDP, ^99mTc-methylenediphosphonate, reference compound]
i.v., 10 min after injection
  Biodistribution of radioactivity, Blood: 2.43 (0.10) % injected dose
  Biodistribution of radioactivity, Bone (Femur): 20.76 (1.51) % injected dose
  Biodistribution of radioactivity, Brain: 0.06 (0.01) % injected dose
  Biodistribution of radioactivity, Heart: 0.94 (0.05) % injected dose
  Biodistribution of radioactivity, Kidney: 10.44 (1.56) % injected dose
  Biodistribution of radioactivity, Large-intestine: 0.61 (0.20) % injected dose
  Biodistribution of radioactivity, Liver: 0.61 (0.02) % injected dose
  Biodistribution of radioactivity, Lung: 1.80 (0.16) % injected dose
  Biodistribution of radioactivity, Muscle: 0.57 (0.09) % injected dose
  Biodistribution of radioactivity, Pancreas: 0.77 (0.10) % injected dose
  Biodistribution of radioactivity, Small-intestine: 0.69 (0.15) % injected dose
  Biodistribution of radioactivity, Spleen: 0.54 (0.07) % injected dose
  F/B ratio (Femur:blood ratio): 8.54 (0.57)
  Biodistribution of radioactivity, Stomach: 0.63 (0.14) % injected dose
i.v., 60 min after injection
  Biodistribution of radioactivity, Blood: 0.23 (0.04) % injected dose
  Biodistribution of radioactivity, Bone (Femur): 27.92 (3.25) % injected dose
  Biodistribution of radioactivity, Brain: 0.02 (0.00) % injected dose
  Biodistribution of radioactivity, Heart: 0.16 (0.02) % injected dose
  Biodistribution of radioactivity, Kidney: 2.03 (0.50) % injected dose
  Biodistribution of radioactivity, Large-intestine: 0.14 (0.04) % injected dose
  Biodistribution of radioactivity, Liver: 0.27 (0.05) % injected dose
  Biodistribution of radioactivity, Lung: 0.30 (0.03) % injected dose
  Biodistribution of radioactivity, Muscle: 0.13 (0.04) % injected dose
  Biodistribution of radioactivity, Pancreas: 0.13 (0.02) % injected dose
  Biodistribution of radioactivity, Small-intestine: 1.55 (1.68) % injected dose
  Biodistribution of radioactivity, Spleen: 0.14 (0.02) % injected dose
  F/B ratio (Femur:blood ratio): 120.87 (9.30)
  Biodistribution of radioactivity, Stomach: 0.70 (0.37) % injected dose
i.v., 180 min after injection
  Biodistribution of radioactivity, Blood: 0.05 (0.01) % injected dose
  Biodistribution of radioactivity, Bone (Femur): 29.03 (2.12) % injected dose
  Biodistribution of radioactivity, Brain: 0.01 (0.00) % injected dose
  Biodistribution of radioactivity, Heart: 0.07 (0.02) % injected dose
  Biodistribution of radioactivity, Kidney: 1.22 (0.36) % injected dose
  Biodistribution of radioactivity, Large-intestine: 0.23 (0.07) % injected dose
  Biodistribution of radioactivity, Liver: 0.16 (0.04) % injected dose
  Biodistribution of radioactivity, Lung: 0.10 (0.02) % injected dose
  Biodistribution of radioactivity, Muscle: 0.06 (0.01) % injected dose
  Biodistribution of radioactivity, Pancreas: 0.07 (0.01) % injected dose
  Biodistribution of radioactivity, Small-intestine: 0.26 (0.08) % injected dose
  Biodistribution of radioactivity, Spleen: 0.07 (0.01) % injected dose
  F/B ratio (Femur:blood ratio): 546.64 (91.83)
  Biodistribution of radioactivity, Stomach: 0.29 (0.07) % injected dose
Normal mice, i.v.
  Accumulation of radioactivity in bone (in words): high accumulation and retention of radioactivity in bone
